Measurements taken from PubChem BioAssay (NCI).
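Five concentrations, 48 hours, 96-well plates. Abbreviation: GI50, concentration required for 50% inhibition of growth. The concentration for full growth arrest is given as TGI.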

Experiments:
Experiment in all cases: NCI tumour cell line growth inhibition, 48 h
M19-MEL melanoma = test system: M19-MEL melanoma
XF 498 CNS = test system: XF 498 CNS
MCF7 breast = test system: MCF7 breast
MDA-MB-231 breast = test system: MDA-MB-231 breast
MDA-MB-435 = test system: MDA-MB-435
DU-145 prostate = test system: DU-145 prostate
MDA-N = test system: MDA-N
P388 leukemia = test system: P388 leukemia
P388/ADR leukemia = test system: P388/ADR leukemia
SN12K1 renal = test system: SN12K1 renal
T-47D breast = test system: T-47D breast

SMILES	TGI (M19-MEL melanoma)	TGI (XF 498 CNS)	other results
O=C(O)c1c[nH]cc1C(=O)O	> 100 µM	> 100 µM	
Clc1ccc(CN2COc3c(cc(Cl)c4cccnc34)C2)cc1	6.06 µM	7.24 µM	
N#Cc1ccccc1NC(=O)c1ccccc1	> 100 µM	> 100 µM	
CCO[C@@H]1C2C=CC(C2)[C@H]1[N+](=O)[O-] (stereo not given in full)	> 100 µM	> 100 µM	
O=C1CCC2(c3ccccc3)Nc3cc(Cl)ccc3N12 (stereo not given)	82.6 µM	56.6 µM	
CC(=O)Oc1ccccc1C(=O)C1c2cccc(O)c2C(=O)c2c(O)cccc21	2.94 µM	0.506 µM	
COc1ccc2cc3n(c2c1)CCc1cc(OC)c(OC)cc1-3	> 100 µM	> 100 µM	
O=c1cccccc1NCCCCCCCCCNc1cccccc1=O	51 µM	20 µM	
FC(F)(F)c1ccc2nc(Nc3ccc(Cl)c(Cl)c3)c(-c3ccccc3)nc2c1	> 100 µM	> 100 µM	
CN(C)C(=O)C1CCC(=C2C(=O)OC(C)(C)OC2=O)N1C (stereo not given)	> 100 µM	> 100 µM	
COC(=O)C(=O)C(C(=O)C=C(C)C)C(=O)C(=O)Nc1cccc(C(C)=O)c1 (stereo not given)	> 100 µM	> 100 µM	
COC(=O)C(Cc1nc2ccc(Cl)cc2[nH]c1=O)C(=O)C(=O)Nc1ccccc1[N+](=O)[O-] (stereo not given)	> 100 µM	> 100 µM	
CCOC(=O)N1C2C=C(C)C(C3C(C)C(=O)N31)N(C(=O)c1ccccc1)O2 (stereo not given)	> 100 µM	> 100 µM	
CN(C)CCNC(=O)c1ccc(Cl)c2c(Nc3ccc(S(N)(=O)=O)cc3)c3ccccc3nc12	4.52 µM	2.86 µM	
CN(C)c1ccc(N=Nc2c([O-])ccc3ccccc23)cc1.[C-]#[O+].[C-]#[O+].[Ir]	50.2 µM	33.3 µM	GI50 (M19-MEL melanoma): 20.3 µM; GI50 (MCF7 breast): 15.8 µM; TGI (MCF7 breast): 31.8 µM; GI50 (MDA-MB-231 breast): 18.8 µM; TGI (MDA-MB-231 breast): 36.2 µM; GI50 (MDA-MB-435): 18.8 µM; TGI (MDA-MB-435): 46.1 µM; GI50 (XF 498 CNS): 17 µM
O=c1[nH]cc(OCC(F)(F)F)c(=O)[nH]1	> 100 µM	> 100 µM	

SMILES	TGI (M19-MEL melanoma)	TGI (XF 498 CNS)	other results
C/C=C(/CCCCNCCCC)[Si](C)(C)C	33 µM	23.7 µM	
FC(F)(F)C12C34C=CC5(CCC6(C=CC1(CC3)O6)C52C(F)(F)F)O4 (stereo not given)	> 100 µM	> 100 µM	
Cc1cccc(C(C)(C)C)c1NC(=O)C(=O)C(c1cnc2ccccc2n1)[N+](=O)[O-] (stereo not given)	> 100 µM	> 100 µM	
CCSc1nc(COC(=O)NC)c(COC(=O)NC)n1C	> 79.9 µM		TGI (DU-145 prostate): > 23.2 µM; TGI (MCF7 breast): > 100 µM; TGI (MDA-MB-231 breast): > 100 µM; TGI (MDA-MB-435): > 100 µM; TGI (MDA-N): > 100 µM; TGI (P388 leukemia): > 100 µM; TGI (P388/ADR leukemia): > 100 µM; TGI (SN12K1 renal): > 100 µM; TGI (T-47D breast): > 100 µM
CC(=O)NC(CCCN(Cc1ccccc1)C(=O)N(CCCl)N=O)C(=O)NCc1ccccc1 (stereo not given)		> 60.4 µM	
COc1cc(Oc2c(O)c(C)c(OC)c(C(C)=O)c2O)c(C(C)=O)c(O)c1C	> 100 µM	> 100 µM	
O=C1C(=O)N(C2C3CC4CC(C3)CC2C4)C(=O)C(=O)C1c1nc2ccccc2o1 (stereo not given)	> 100 µM	> 100 µM	
CC(=O)C1=C([O-])C(C)OC1=O.CC(=O)C1=C([O-])C(C)OC1=O.[NH-]C1CCCC[C@H]1[NH-].[Pt+4] (stereo not given)	> 100 µM	> 100 µM	GI50 (M19-MEL melanoma): 56 µM; GI50 (XF 498 CNS): 66.9 µM
CC1CC2(CC[C@@H]1O)OCCO2 (stereo not given in full)	> 100 µM	> 100 µM	
CCOC(=O)/C(C#N)=C1\N[C@H](C(=O)OCC)CO1	> 100 µM	78.1 µM	
CCOc1ccc(NC(=O)CC2SC(N)=NC2=O)cc1 (stereo not given)	> 100 µM	> 100 µM	
O=C1CC2C(=O)N(Cc3ccccc3)C1C(S(=O)(=O)c1ccccc1)C2S(=O)(=O)c1ccccc1 (stereo not given)	4.09 µM	3.53 µM	
CCC1CN2CCc3cc(OC)c(OC)cc3C2CC1CC1c2cc(OC)c(OC)cc2CCN1C(=O)CNC(=O)OC(C)(C)C (stereo not given)	61.2 µM	28.9 µM	
O=C1c2ccccc2C(=O)C1C(c1ccc([N+](=O)[O-])cc1)C1C(=O)c2ccccc2C1=O		> 100 µM	
O=C(Cc1ccccc1)N/N=C(\C1=Nc2ccc([N+](=O)[O-])cc2NC1O)C(O)c1ccc([N+](=O)[O-])cc1 (stereo not given)	> 100 µM	> 100 µM	
CSc1nc(-c2ccccc2)c2c(n1)-c1ccccc1CC2	> 100 µM	> 100 µM	
